{"source": "patent US20180106782A1", "about": "“HIGH THROUGHPUT CARDIOTOXICITY SCREENING PLATFORM” (The Board of Trustees of the Leland Stanford Junior …, priority 2016, published 2018)", "test_system": "μpatterned hiPSC-CMs", "assay": "traction force microscopy of moving microbeads under beating μpatterned hiPSC-CMs", "format": "cell-based, human", "conditions": "for absolute values of dmax, VC, VR, ΣFmax, PC and PR: six single cells (FIG. 5)", "experimental": "We cultured single hiPSC-CMs on Matrigel micropatterns, which were transferred from printed glass coverslips onto the surface of polyacrylamide hydrogels with a stiffness of 10 kPa as previously described. (Ribeiro 2015a) In summary, Matrigel was diluted 1:10 in L15 medium (Thermo Fisher) and added to the top of elastomeric microstamps composed of polydimethylsiloxane 182 (Dow Corning) to be incubated at 3-4° C. overnight. Microstamps consisted of 2000 μm^2 rectangular features with an aspect ratio of 7:1 (length:width). We gently aspirated Matrigel after the overnight incubation, washed the stamps twice in L15 medium, aspirated L15 medium from the surface and dried it with a low stream of N2 gas. We then used microstamps to micropattern the Matrigel rectangular features on clean glass coverslips by microcontact printing. Matrigel on micropatterns was transferred to the surface of the polyacrylamide substrates during the gelation process by placing the patterned coverslip in contact with the top of the acrylamide prepolymer solution right before gelation. The aqueous prepolymer solution to be gelled was composed of acrylamide (Sigma-Aldrich)(10% w/v), bisacrylamide (Sigma-Aldrich) (0.1% w/v), ammonium persulfate (Sigma-Aldrich) (0.01% w/v) and N,N,N′,N′-tetramethylethylenediamine (Sigma-Aldrich) (0.1% v/v), HEPES (Thermo Fisher) (35 mM) and Milli-Q water. To calculate the forces generated by cells attached to polyacrylamide surfaces with traction force microscopy, green fluorescent microbeads with a diameter of 0.2 μm (Thermo Fisher) were also dispersed in the gel solution to yield a final concentration of 6.25×10^9 microbeads/mL. We gelled acrylamide on top of another coverslip functionalized with 3-(trimethoxysilyl)propyl methacrylate (Sigma-Aldrich), which binds polyacrylamide. […] Once polymerized, polyacrylamide substrates were incubated in PBS for at least 2 hours and the top coverslips were carefully removed with a razor blade. We seeded hiPSC-CMs on these polyacrylamide hydrogel substrates after washing them 3 times with PBS.\nWe passaged hiPSC-CMs onto micropatterned polyacrylamide devices at a density of 1000 cells/cm^2. For this purpose, cultures of thawed cells were washed twice with PBS and incubated in 1 mL of Accutase for 8-10 min. After observing cell detachment from the bottom of the wells, we quenched Accutase with Dulbecco's modified Eagle's medium (Thermo Fisher) containing 12% fetal bovine serum and counted the concentration of cells in medium with a hemocytometer. Then, we centrifuged cells at 83 rcf for 3 min at room temperature and aspirated the supernatant to resuspend the pelleted cells in the required volume of medium (RPMI-1640 cell-culture medium with 5 μM ROCK inhibitor) for adding 150 μL of cell solution to the surface of hydrogel devices at a concentration of 1000 cells/cm^2. After 1.5 h of incubation, we added 2.5 mL of medium to the well containing hydrogel devices and added fresh medium without ROCK inhibitor after 2 days. Single beating cells on Matrigel patterns were analyzed between 5-10 days after seeding.\nWe imaged the movement of beating hiPSC-CMs and the displacement of fluorescent microbeads embedded in polyacrylamide substrates with a Zeiss Axiovert 200M inverted microscope equipped with a Zeiss Axiocam MRm CCD camera. This microscope also contained an environmental chamber (PeCon) to set temperature at 37° C. Unless otherwise noted, we acquired microscopy videos while electrically pacing hiPSC-CMs with 10 ms-wide bipolar pulses of electric-field stimulation at 10-15 V with a frequency of 1 Hz (Myopacer, lonOptix).\nTo induce contractile changes in hiPSC-CMs, we added drugs known to affect CM contractile machinery to the culture medium. We analyzed the mechanical output of cells after adding drugs. […]", "data": [{"smiles": "CC(C)NCC(O)c1ccc(O)c(O)c1", "note": "(stereo not drawn) [isoproterenol]", "values": [{"measurement": "t̂ (time between peak velocity of contraction and of relaxation)", "setting": "0.1 μM and 1 μM isoproterenol, six cells, no significant difference between the two concentrations (FIG. 5G)", "value": "decreased"}, {"measurement": "br (beat rate)", "setting": "0.1 μM and 1 μM isoproterenol, six cells, no significant difference between the two concentrations (FIG. 5H)", "value": "increased"}, {"measurement": "br (beat rate)", "setting": "0.1 μM isoproterenol, single cell (FIG. 4D)", "value": "increased"}, {"measurement": "absolute values of dmax, VC, VR, ΣFmax, PC and PR", "setting": "0.1 μM isoproterenol", "value": "consistently increased"}, {"measurement": "br (beat rate)", "setting": "1 μM isoproterenol, single cell (FIG. 4D)", "value": "clear increase"}, {"measurement": "ΣFmax, PC and PR", "setting": "1 μM isoproterenol, single cell (FIG. 4D,E)", "value": "substantial decrease"}, {"measurement": "absolute values of dmax, VC, VR, ΣFmax, PC and PR", "setting": "1 μM isoproterenol", "value": "decreased"}, {"measurement": "PR (peak power of relaxation)", "setting": "ISO 0.1 (μM per FIG. 4), single cell, no ISO: 0.28", "value": 0.36, "unit": "picoW"}, {"measurement": "ΣFmax (peak force)", "setting": "ISO 0.1 (μM per FIG. 4), single cell, no ISO: 0.53", "value": 0.58, "unit": "μN"}, {"measurement": "PC (peak power of contraction)", "setting": "ISO 0.1 (μM per FIG. 4), single cell, no ISO: 0.7", "value": 0.86, "unit": "picoW"}, {"measurement": "VR (peak velocity of relaxation)", "setting": "ISO 0.1 (μM per FIG. 4), single cell, no ISO: 1.05", "value": 0.85, "unit": "μm/s"}, {"measurement": "VC (peak velocity of contraction)", "setting": "ISO 0.1 (μM per FIG. 4), single cell, no ISO: 1.68", "value": 1.92, "unit": "μm/s"}, {"measurement": "PR (peak power of relaxation)", "setting": "ISO 1 (μM per FIG. 4), single cell, no ISO: 0.28", "value": 0.06, "unit": "picoW"}, {"measurement": "ΣFmax (peak force)", "setting": "ISO 1 (μM per FIG. 4), single cell, no ISO: 0.53", "value": 0.15, "unit": "μN"}, {"measurement": "PC (peak power of contraction)", "setting": "ISO 1 (μM per FIG. 4), single cell, no ISO: 0.7", "value": 0.1, "unit": "picoW"}, {"measurement": "VR (peak velocity of relaxation)", "setting": "ISO 1 (μM per FIG. 4), single cell, no ISO: 1.05", "value": 0.93, "unit": "μm/s"}, {"measurement": "VC (peak velocity of contraction)", "setting": "ISO 1 (μM per FIG. 4), single cell, no ISO: 1.68", "value": 0.43, "unit": "μm/s"}, {"measurement": "inotropic and chronotropic response", "setting": "extracellular isoproterenol 0.1 μM (FIGS. 4 and 5)", "value": "positive inotropic and positive chronotropic responses"}, {"measurement": "inotropic and chronotropic response", "setting": "isoproterenol increased to 1 μM (FIGS. 4 and 5)", "value": "negative inotropic effect, but a stronger chronotropic response"}]}, {"smiles": "COC(=O)N1CCN(Cc2cccc(NC(=O)Nc3ccc(C)nc3)c2F)CC1", "note": "[omecamtiv mecarbil]", "values": [{"measurement": "mechanical output (inotropy)", "setting": "0.1 μM and 10 nM omecamtiv mecarbil, videos within 5 minutes after adding, 6 cells (FIG. 10)", "value": "decreased mechanical output (negative inotropy)"}, {"measurement": "ΣFmax and br, acute", "setting": "0.1 μM omecamtiv mecarbil, single cell (FIG. 6D)", "value": "slight acute increase"}, {"measurement": "absolute values of PC and PR right after adding", "setting": "0.1 μM omecamtiv mecarbil, single cell, even decreased in some contractile events (FIG. 6E)", "value": "did not vary"}, {"measurement": "PR (peak power of relaxation)", "setting": "OM 0.1 μM (FIG. 6), row 'acute', single cell, no OM: 0.6", "value": 0.02, "unit": "picoW"}, {"measurement": "ΣFmax (peak force)", "setting": "OM 0.1 μM (FIG. 6), row 'acute', single cell, no OM: 0.7", "value": 0.14, "unit": "μN"}, {"measurement": "PC (peak power of contraction)", "setting": "OM 0.1 μM (FIG. 6), row 'acute', single cell, no OM: 0.75", "value": 0.04, "unit": "picoW"}, {"measurement": "VR (peak velocity of relaxation)", "setting": "OM 0.1 μM (FIG. 6), row 'acute', single cell, no OM: 1.18", "value": 0.18, "unit": "μm/s"}, {"measurement": "VC (peak velocity of contraction)", "setting": "OM 0.1 μM (FIG. 6), row 'acute', single cell, no OM: 1.35", "value": 0.29, "unit": "μm/s"}, {"measurement": "PR (peak power of relaxation)", "setting": "OM 0.1 μM (FIG. 6), row 'chronic', single cell, no OM: 0.6", "value": 0.59, "unit": "picoW"}, {"measurement": "ΣFmax (peak force)", "setting": "OM 0.1 μM (FIG. 6), row 'chronic', single cell, no OM: 0.7", "value": 0.72, "unit": "μN"}, {"measurement": "PC (peak power of contraction)", "setting": "OM 0.1 μM (FIG. 6), row 'chronic', single cell, no OM: 0.75", "value": 0.67, "unit": "picoW"}, {"measurement": "VR (peak velocity of relaxation)", "setting": "OM 0.1 μM (FIG. 6), row 'chronic', single cell, no OM: 1.18", "value": 1.1, "unit": "μm/s"}, {"measurement": "VC (peak velocity of contraction)", "setting": "OM 0.1 μM (FIG. 6), row 'chronic', single cell, no OM: 1.35", "value": 1.22, "unit": "μm/s"}, {"measurement": "time of contractions", "setting": "higher concentrations of omecamtiv mecarbil (FIG. 10D)", "value": "increase"}, {"measurement": "rate of beating", "setting": "lower concentrations of omecamtiv mecarbil (FIG. 10E)", "value": "increased"}, {"measurement": "variations of t̂ and br between 0.1 μM and 10 nM", "setting": "omecamtiv mecarbil, within 5 minutes after adding (FIG. 10D,E)", "value": "statistically different"}, {"measurement": "instantaneous acute inotropic effect", "setting": "within 10 seconds of adding 0.1 μM omecamtiv mecarbil, single cell (FIG. 10J)", "value": "positive inotropy"}]}]}
